Assays:
Sprague-Dawley rats = assay: Forced swimming test (immobility time) after repeated administration of reserpine; format: in vivo, rat; details: reserpine 1 mg/kg s.c. once a day for 3 days
Protocol: Male Sprague-Dawley rats (7 weeks old, Japan SLC, Hamamatsu, Japan) were used as the animal. The forced swimming test was carried out by modifying the method of Porsolt et al. (1977) in the following manner. A soft wire equipped with a magnet (1 mm in diameter, 3 mm in length) was attached to both forelimbs of each animal, and the animal was allowed to swim in a cylindrical plastic water bath (20 cm in diameter, 45 cm in height) filled with water (24±1° C.) to a depth of 30 cm. In this test, the immobility time of each animal was measured using a forced swimming automatic measuring device (MicroAct Scratching Test version 1.06; Neuroscience, Tokyo, Japan) which detects movement of the forelimbs equipped with the magnet, through a coil around the cylinder.
Influence of reserpine upon the immobility time in the forced swimming test was examined in accordance with the following protocol. […] All of the measured values were expressed as average value±standard error. Statistical difference of the measured values between the reserpine administration groups and the vehicle administration group in each test schedule was carried out by the Student's t-test. Probability value (P) of less than 5% was judged as statistically significant (P<0.05 was expressed as * in the graphs).

[1] = system: dopamine, norepinephrine, serotonin, DOPAC, MHPG and 5-HIAA in the spinal cord, thalamus and prefrontal cortex; assay: Amounts of dopamine, norepinephrine, serotonin, DOPAC, MHPG and 5-HIAA in spinal cord, thalamus and prefrontal cortex after reserpine single administration (HPLC-ECD); format: in vivo, rat; details: reserpine 3 mg/kg single s.c.
Protocol: Male Sprague-Dawley rats (7 weeks old, Japan SLC, Hamamatsu, Japan) were used as the animal.
A total of 72 rats were divided into 12 test schedules (collection of samples before the administration, 2, 4, 8 and 24 hours after the administration and 2, 3, 5, 7, 10, 14 and 21 days thereafter) and further divided each of them into a vehicle (0.5% acetic acid aqueous solution) administration group and a reserpine 3 mg/kg administration group, to 3 rats per group. As shown in Example 5, the vehicle or 3 mg/kg of reserpine was administered subcutaneously only once to each rat, and the brain and spinal cord were quickly collected after 2, 4, 8 or 24 hours or 2, 3, 5, 7, 10, 14 or 21 days of the administration. The thalamus and prefrontal cortex were separated from the brain on an ice-cold dish. Regarding the sampling before administration, samples were collected before beginning of the administration of the vehicle or reserpine. The collected samples were quickly frozen and stored at −80° C. until their use in the measurements. On the day of the measurement, tissues of respective samples were subjected to wet weight measurement, homogenized in 0.2 M perchloric acid/0.1 mM EDTA-2Na solution using an ultrasonic homogenizer. After centrifugation at 15,000 g and at 4° C. for 15 minutes, the supernatant was adjusted to pH 3.5 using sodium acetate and filtered using a filter. Amounts of dopamine, norepinephrine, serotonin, DOPAC, MHPG and 5-HIAA in these samples were measured using a high performance liquid chromatography (column: SC-50DS 3.0, 150 mm, Eicom Co., Ltd., Kyoto, Japan, mobile phase composition: 0.1 M sodium acetate buffer, 0.1 M citrate buffer, pH 3.5, 5 mg/l EDTA-2Na, 200 mg/l sodium octane sulfonic acid, 16% methanol) and an electrochemical detector (ECD-300, Eicom Co., Ltd., Kyoto, Japan). The measurement was carried out under conditions of flow rate 0.5 ml/min, applied voltage 750 mV and 25° C. Amounts of dopamine, norepinephrine, serotonin, DOPAC, MHPG and 5-HIAA in the samples were quantified by comparing sample peak areas of respective standards measured on the same day of the sample measurement.
All of the measured values were expressed as average value±standard error in the graphs, and unit of the measured values was set to ng/g tissue wet weight. Statistical difference of the measured values between the reserpine administration group and the vehicle administration group in each test schedule was carried out by the two-way analysis of variance and the Bonferroni method. Probability value (P) of less than 5% was judged as statistically significant (P<0.05 was expressed as * in the graphs).

rats = details: single intraperitoneal administration of reserpine in rats; Non-patent Reference 13; cited from earlier work
[2] = after 2, 4, 8 and 24 hours and 2, 3, 5, 7, 10, 14 and 21 days

Structure (SMILES): COC(=O)[C@H]1[C@H]2C[C@@H]3c4[nH]c5cc(OC)ccc5c4CCN3C[C@H]2C[C@@H](OC(=O)c2cc(OC)c(OC)c(OC)c2)[C@@H]1OC [reserpine]
- immobility time in forced swimming test vs vehicle administration group (Sprague-Dawley rats; after 3, 5, 7 and 14 days of the final administration (P=0.0007, P=0.004, P<0.0001, P=0.0008)): significant increase
- immobility time in forced swimming test vs vehicle administration group (Sprague-Dawley rats; after 1 day of the final administration (P=0.625, Student's t-test)): Significant increase in the immobility time by the reserpine administration was not found
- amount of DOPAC in the prefrontal cortex ([1]; after 2, 3, 5, 7, 10 and 14 days): significantly reduced
- amount of 5-HIAA in the thalamus ([1]; after 2, 4, 8 and 24 hours): significantly increased
- amount of DOPAC in the spinal cord ([1]; after 2, 4, 8 and 24 hours): significantly increased
- amount of dopamine in the spinal cord [1, 2]: significantly reduced
- amount of dopamine in the thalamus [1, 2]: significantly reduced
- amount of norepinephrine in the prefrontal cortex [1, 2]: significantly reduced
- amount of norepinephrine in the spinal cord [1, 2]: significantly reduced
- amount of norepinephrine in the thalamus [1, 2]: significantly reduced
- amount of serotonin in the spinal cord [1, 2]: significantly reduced
- amount of dopamine in the prefrontal cortex ([1]; after 2, 4, 8 and 24 hours and 2, 3, 5, 7, 10 and 14 days): significantly reduced
- amount of serotonin in the prefrontal cortex ([1]; after 2, 4, 8 and 24 hours and 2, 3, 5, 7 and 10 days): significantly reduced
- amount of 5-HIAA in the spinal cord ([1]; after 4, 8, 24 hours and 2 days): significantly increased
- amount of serotonin in the thalamus ([1]; after 8 and 24 hours and 3, 5, 7 and 10 days): significantly reduced
- amount of MHPG in the prefrontal cortex ([1]; after 4 hours and 7 days): significantly reduced
- amount of MHPG in the spinal cord ([1]; after 4 hours and 7 days): significantly reduced
- amount of 5-HIAA in the prefrontal cortex ([1]; after 8 hours and 2, 3, 5, 7, 10, 14 and 21 days): significantly reduced
- amount of DOPAC in the spinal cord ([1]; after 2 days and later): did not significantly change
- amount of DOPAC in the thalamus ([1]; all time points): did not significantly change
- amount of MHPG in the thalamus ([1]; all time points): did not significantly change
- amount of 5-HIAA in the thalamus ([1]; in and after 2 days): no significant difference
- amount of 5-HIAA in the spinal cord ([1]; in and after 3 days): did not significantly change
- amount of DOPAC in the prefrontal cortex ([1]; within 24 hours after the administration): did not significantly change
- sensitivity to thermal stimulation (rats): causes hypersensitivity to thermal stimulation
- time within which hypersensitivity to thermal stimulation disappears (rats): ≤ 24 h
